Experimental data from ChEMBL document CHEMBL1201862, “PubChem BioAssay data set” (2004).
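Briefly, cells in 96-well plates were exposed to five compound concentrations for 48 h, and endpoints were estimated by linear interpolation. GI50 = concentration required for 50% inhibition of growth.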 Activity calls are given as the source filed them. Cut-off read from the data, not from the text of the source: active = GI50 up to about 1.1 µM and inactive = higher.

Assays:
Test in all cases: inhibition of tumour cell growth, NCI panel, 48 h
SR = test system: SR
HL-60 = test system: HL-60
NCI-H23 = test system: NCI-H23
MOLT-4 = test system: MOLT-4
KM12 = test system: KM12
T47D = test system: T47D
M14 = test system: M14
ACHN = test system: ACHN
OVCAR-3 = test system: OVCAR-3
HCT-15 = test system: HCT-15
OVCAR-5 = test system: OVCAR-5
CAKI-1 = test system: CAKI-1
NCI-H460 = test system: NCI-H460
HCC 2998 = test system: HCC 2998
OVCAR-8 = test system: OVCAR-8
RXF 393 = test system: RXF 393
LOX IMVI = test system: LOX IMVI
RPMI-8226 = test system: RPMI-8226
HOP-92 = test system: HOP-92
OVCAR-4 = test system: OVCAR-4

Row | SMILES | GI50 (SR) | GI50 (HL-60) | GI50 (NCI-H23) | GI50 (MOLT-4) | GI50 (KM12) | GI50 (T47D) | GI50 (M14) | GI50 (ACHN) | GI50 (OVCAR-3) | GI50 (HCT-15) [µM] | GI50 (OVCAR-5) | GI50 (CAKI-1) | GI50 (NCI-H460) | GI50 (HCC 2998) | GI50 (OVCAR-8) | GI50 (RXF 393) | GI50 (LOX IMVI) | GI50 (RPMI-8226) | GI50 (HOP-92) | GI50 (OVCAR-4)
1 | O=C(NCCNCCO)N/N=C/c1ccc(Cl)cc1 | > 100 µM (inactive) | > 100 µM (inactive) | > 100 µM (inactive) | > 100 µM (inactive) | > 100 µM (inactive) | > 100 µM (inactive) | > 100 µM (inactive) | > 100 µM (inactive) | > 100 µM (inactive) | > 100 | > 100 µM (inactive) | > 100 µM (inactive) | > 100 µM (inactive) | > 100 µM (inactive) | > 100 µM (inactive) |  |  |  |  | 
2 | CC1(C)C2CCC(=O)C1CC2 (centres undefined) |  | > 100 µM (inactive) | > 100 µM (inactive) | > 100 µM (inactive) | > 100 µM (inactive) | > 100 µM (inactive) | > 100 µM (inactive) | > 100 µM (inactive) | > 100 µM (inactive) | > 100 | > 100 µM (inactive) | > 100 µM (inactive) | > 100 µM (inactive) | > 100 µM (inactive) | > 100 µM (inactive) | > 100 µM (inactive) | > 100 µM (inactive) | > 100 µM (inactive) |  | 
3 | Cc1ccc(N2C=Nn3c(nc4sc5c(c4c3=O)CCCC5)C2)cc1 |  |  | 41.7 µM (inactive) | > 100 µM (inactive) | 62.4 µM (inactive) | 43.3 µM (inactive) | 65.5 µM (inactive) | 46.5 µM (inactive) | 49.4 µM (inactive) | 48.2 | 62.5 µM (inactive) | 46 µM (inactive) | 50.1 µM (inactive) | 39.9 µM (inactive) | 62.1 µM (inactive) | 24.8 µM (inactive) | 47.4 µM (inactive) | 32.1 µM (inactive) | > 100 µM (inactive) | 37.8 µM (inactive)
4 | CN(C)[C@@H]1C(O)=C(C(N)=O)C(=O)[C@@]2(O)C(O)=C3C(=O)c4c(O)cccc4C[C@H]3C[C@@H]12 | 2.56 µM (inactive) | 2 µM (inactive) | 2 µM (inactive) | 2.45 µM (inactive) | 2.13 µM (inactive) |  | 1.99 µM (inactive) | 3.74 µM (inactive) | 1.75 µM (inactive) | 4.8 | 2.09 µM (inactive) | 1.98 µM (inactive) | 2.18 µM (inactive) | 1.78 µM (inactive) | 2.89 µM (inactive) | 1.69 µM (inactive) | 1.91 µM (inactive) | 2.17 µM (inactive) | 2.26 µM (inactive) | 1.68 µM (inactive)
5 | COCP1(=S)OC(C)CCN1C(C)C (centres undefined) | > 100 µM (inactive) |  | > 100 µM (inactive) |  | > 100 µM (inactive) | > 100 µM (inactive) | > 100 µM (inactive) | > 100 µM (inactive) | > 100 µM (inactive) | > 100 | > 100 µM (inactive) | > 100 µM (inactive) | > 100 µM (inactive) | > 100 µM (inactive) | > 100 µM (inactive) |  | > 100 µM (inactive) | > 100 µM (inactive) |  | > 100 µM (inactive)
6 | CSc1nc2c(nc(C)c(=O)n2C2OCC(OC(C)=O)C(OC(C)=O)C2OC(C)=O)c(=O)[nH]1 (centres undefined) | > 100 µM (inactive) | > 100 µM (inactive) | > 100 µM (inactive) | > 100 µM (inactive) | > 100 µM (inactive) |  | > 100 µM (inactive) | > 100 µM (inactive) | > 100 µM (inactive) | > 100 | > 100 µM (inactive) | 88.5 µM (inactive) | > 100 µM (inactive) | > 100 µM (inactive) | > 100 µM (inactive) | > 100 µM (inactive) | > 100 µM (inactive) | > 100 µM (inactive) | 3.76 µM (inactive) | > 100 µM (inactive)
7 | CCN(CC)c1ccc2cc3ccc(N(CC)CC)cc3[o+]c2c1 | 0.267 µM (active) | 0.0773 µM (active) | 0.946 µM (active) | 0.127 µM (active) | 0.51 µM (active) |  | 1.95 µM (inactive) | 1.26 µM (inactive) | 0.8 µM (active) | 2.07 | 6.82 µM (inactive) | 4.06 µM (inactive) | 1.78 µM (inactive) | 4.39 µM (inactive) | 0.407 µM (active) | 2.36 µM (inactive) | 0.6 µM (active) | 0.305 µM (active) | 0.693 µM (active) | 11.1 µM (inactive)
8 | COc1ccc(/C=C(/c2ccc(OC)cc2)c2c(Cl)cc(Cl)c(/C(=C\c3ccc(OC)cc3)c3ccc(OC)cc3)c2/N=N/c2ccccc2)cc1 |  | > 100 µM (inactive) | > 100 µM (inactive) | 88.7 µM (inactive) | > 100 µM (inactive) | > 100 µM (inactive) | > 100 µM (inactive) | 72.4 µM (inactive) | > 100 µM (inactive) | > 100 | > 100 µM (inactive) | > 100 µM (inactive) | > 100 µM (inactive) | > 100 µM (inactive) | > 100 µM (inactive) | > 100 µM (inactive) | > 100 µM (inactive) | > 100 µM (inactive) | > 100 µM (inactive) | > 100 µM (inactive)
9 | Cc1nc(C(N)=S)sc1C(=O)CC(=O)C(=O)Nc1ccccc1[N+](=O)[O-] | > 100 µM (inactive) | > 100 µM (inactive) | > 100 µM (inactive) | > 100 µM (inactive) | > 100 µM (inactive) |  | > 100 µM (inactive) | > 100 µM (inactive) | > 100 µM (inactive) | > 100 | > 100 µM (inactive) | > 100 µM (inactive) | > 100 µM (inactive) | > 100 µM (inactive) | > 100 µM (inactive) | > 100 µM (inactive) | > 100 µM (inactive) | > 100 µM (inactive) | > 100 µM (inactive) | > 100 µM (inactive)
10 | COc1ccc(-c2c(/C=N/OCC(=O)O)c3sc4ccccc4n3c2/C=N/OCC(=O)O)cc1 |  |  | > 50 µM (inactive) | > 50 µM (inactive) | > 50 µM (inactive) | > 50 µM (inactive) | > 50 µM (inactive) | > 50 µM (inactive) | > 50 µM (inactive) | > 50 | > 50 µM (inactive) | > 50 µM (inactive) | > 50 µM (inactive) | > 50 µM (inactive) | > 50 µM (inactive) | > 50 µM (inactive) | > 50 µM (inactive) |  | 21.8 µM (inactive) | > 50 µM (inactive)
11 | O=C(CC(C(=O)c1cccs1)c1ccsc1)c1ccc(Cl)s1 (centres undefined) | 39.2 µM (inactive) | 75.2 µM (inactive) | > 100 µM (inactive) | 47.3 µM (inactive) | > 100 µM (inactive) | 44.3 µM (inactive) | 85.5 µM (inactive) | 96.2 µM (inactive) |  | 73.3 | 31.4 µM (inactive) | > 100 µM (inactive) | > 100 µM (inactive) | > 100 µM (inactive) | > 100 µM (inactive) |  | > 100 µM (inactive) | 55.1 µM (inactive) |  | > 100 µM (inactive)
12 | Oc1ccc(-c2cc(-c3c(O)cc(O)cc3O)on2)cc1 | 81.3 µM (inactive) | > 100 µM (inactive) | > 100 µM (inactive) | 38.5 µM (inactive) | 72.6 µM (inactive) | 45.5 µM (inactive) | > 100 µM (inactive) | 36.4 µM (inactive) | > 100 µM (inactive) | 56.8 | > 100 µM (inactive) | 94.6 µM (inactive) | 40.3 µM (inactive) | 66.4 µM (inactive) | 55.6 µM (inactive) |  | 55.1 µM (inactive) | 44.9 µM (inactive) |  | > 100 µM (inactive)
13 | CCOP(=O)(/C=C\n1cc(C)c(=O)[nH]c1=O)OCC |  | > 100 µM (inactive) | > 100 µM (inactive) | > 100 µM (inactive) | > 100 µM (inactive) | > 100 µM (inactive) | > 100 µM (inactive) | > 100 µM (inactive) | > 100 µM (inactive) | > 100 | > 100 µM (inactive) | > 100 µM (inactive) | > 100 µM (inactive) |  | > 100 µM (inactive) | > 100 µM (inactive) | > 100 µM (inactive) | > 100 µM (inactive) |  | > 100 µM (inactive)
14 | CCCCCCCCCCCCCCCCCCOP1(=O)OCCO1 |  | 23.8 µM (inactive) | > 100 µM (inactive) | 40.7 µM (inactive) | > 100 µM (inactive) | > 100 µM (inactive) | > 100 µM (inactive) | > 100 µM (inactive) | > 100 µM (inactive) | 39.9 | 74 µM (inactive) | > 100 µM (inactive) |  | 47.2 µM (inactive) | > 100 µM (inactive) | 16.4 µM (inactive) | 52.1 µM (inactive) | 37.4 µM (inactive) | > 100 µM (inactive) | > 100 µM (inactive)
15 | C=C1c2ccccc2Oc2nc3nc(N)c(C#N)c(N)c3c(N)c21 |  | 21.6 µM (inactive) | 18 µM (inactive) | 23.7 µM (inactive) | 18.6 µM (inactive) | 51.1 µM (inactive) | 29.6 µM (inactive) | 40.5 µM (inactive) | 16.6 µM (inactive) | 16.9 | 85.5 µM (inactive) | 30.8 µM (inactive) | 16 µM (inactive) | 19.5 µM (inactive) | 16.4 µM (inactive) | 58.1 µM (inactive) | 24.5 µM (inactive) | 24.4 µM (inactive) | 55.2 µM (inactive) | 42.6 µM (inactive)
16 | C=C1CC[C@@H]2[C@](C)(COC(=O)CCC(=O)OC)CCC[C@@]2(C)[C@@H]1CCC1=CC(=O)OC1 | 21.5 µM (inactive) | 20.3 µM (inactive) | > 100 µM (inactive) | 17.4 µM (inactive) | 43.6 µM (inactive) | 29.2 µM (inactive) | > 100 µM (inactive) | > 100 µM (inactive) | 61.4 µM (inactive) | 39.5 | > 100 µM (inactive) | 26.2 µM (inactive) | > 100 µM (inactive) |  | 63 µM (inactive) |  | 55.3 µM (inactive) | 16.1 µM (inactive) |  | > 100 µM (inactive)
